In patent US20050074879A1, “Antisense oligonucleotide modulation of STAT3 expression” (priority 2000, published 2005):
Oligonucleotides are written 5' to 3', each unit as a sugar letter and its base; * is a phosphorothioate linkage, no mark a phosphodiester; rarer units and linkages stand in square brackets, end groups in braces. Plain capitals give the bases only. e = 2'-O-(2-methoxyethyl) (MOE); [5mC] = 5-methylcytosine; d = 2'-deoxy (DNA)

Columns and labels:
[1] = system: LGL leukemic cells; test: Sensitization of LGL cells to Fas-mediated apoptosis, flow cytometry; format: cell-based, human
Method: LGL leukemic cells were obtained from patients who met the clinical criteria of T cell (CD3+) LGL leukemia with increased LGL counts and clonal TCR gene rearrangements. All patients had chronic disease not requiring treatment at the time of analysis. Purified leukemic LGL cells were placed in 24-well plates at a concentration of 2×10^6/0.5 mL of complete medium (RPMI-1640 medium supplemented with 10% fetal bovine serum, 2 mM L-glutamine, 10 U/mL penicillin, and 100 ug/mL streptomycin, all from Gibco Life Technologies, Gaithersburg, Md.). Cells were incubated with either ISIS 17148 antisense oligonucleotide (SEQ ID NO: 95) or the control, ISIS 16094 (SEQ ID NO: 152). Antisense oligonucleotide delivery to LGL leukemic cells was by passive uptake and no transfection reagents were included in the reaction.
Extracts of LGL cells treated with antisense oligonucleotides (1 uM dosing for ISIS 17148 and the control) from three patients were obtained and assayed for STAT3 protein levels by Western blot. Sensitization of the LGL cells to Fas-mediated apoptosis was also measured by flow cytometry in cells treated with antisense oligonucleotides at doses of 1, 2 and 5 uM. By Western analysis, a reduction in STAT3 protein levels ranged from 25 to 45%. […] Levels of apoptosis in control oligonucleotide treated cells remained at 6% at all doses.

[2] = system: Human STAT3 mRNA; test: Inhibition of human STAT3 mRNA expression in U266 cells, Northern blot; format: cell-based; details: for STAT3 mRNA expression in U266 cells (in words): following electroporation, Northern blotting
Method: U266 human myeloma cell lines (originally obtained from American Type Culture Collection) were maintained in RPMI 1640 medium supplemented with 10% fetal calf serum. Cells (15×10^6 cells in PBS) were transfected with oligonucleotides at 200V with a single 6-millisecond pulse using a BTX Electro Square Porator T820 (Genetronics, San Diego Calif.). The cells were incubated for 24 hours before RNA extraction.
Total cellular RNA was isolated using the Rneasy kit (Qiagen, Santa Clarita, Calif.). Northern blotting was perfomed on 15 μg of RNA using a cDNA probe prepared from MB-MDA 468 RNA by standard RT-PCR followed by a nested primer reaction. Signals were quantitated using a Molecular Dynamics Phosphorimager.
In order to examine the importance of STAT3 expression in multiple myeloma cells, a series of 20mer STAT3 antisense oligonucleotides were designed and synthesized, using phosphorothioate chemistry and incorporating 2′-O-methoxyethyl modifications to improve hybridization affinity and nuclease resistance.

[3] = system: U266 multiple myeloma cells; test: Apoptosis of U266 cells, Annexin-V staining, flow cytometry; format: cell-based, human
Method: U266 cells (ATCC, Bethesda, Md.) were cultured in RPMI 1640 medium supplemented with 10% heat-inactivated fetal bovine serum (Sigma Chemical Company, St. Louis, Mo.), 10 mM Hepes, pH 7.2, […] 2-ME, 2mM L-glutamine, 100 U/ml penicillin, and 100 µg/ml streptomycin (Gibco, Grand Island, N.Y.).
2′-O-methoxyethylribose modified phosphorothioate oligonucleotides were synthesized on an automated DNA synthesizer (Applied Biosystems model 380B), as described above. Chimeric oligonucleotides were employed in these studies; the chimeric oligonucleotides contain 2′-O-methoxyethyl modified residues flanking a 2′-deoxynucleotide/phosphorothioate region (gap) that supports RNase H activation. Oligonucleotides were analyzed by capillary gel electrophoresis and judged to be at least 85% full-length material. U266 (1×10^7 cells in PBS) were transfected with oligonucleotides by electroporation, at 175V, 1000 μF using a BTX Electro Cell Manipulator 600 (Genetronics, San Diego, Calif.).
10×10^6 U266 cells were electroporated with oligonucleotides and cultured for 48 hours before analysis of phosphatidylserine expression was performed as a measure of apoptosis using the Annexin-V staining kit (Clontech, Palo Alto, Calif.) according to the manufacturer's instructions. […] The samples were then diluted with FacsFlow buffer and analyzed on a Becton Dickinson FACScan (Mountain View, Calif.).

[4] = system: LNCaP human prostatic carcinoma xenograft; test: LNCaP mouse model of prostate carcinoma: tumor volume and serum PSA in castrated nude mice; format: in vivo; details: 10 mg/kg intraperitoneally, up to 10 weeks post-castration
Method: The LNCaP murine model of human prostate carcinoma is described in Kiyama et al., Cancer Res. 63:3575-3584, 2003, incorporated herein by reference. Briefly, LNCaP human prostatic carcinoma cells were cultured and maintained in RPMI medium (Life Technologies, Inc., Carlsbad, Calif.) supplemented with 5% heat inactivated fetal calf serum (FCS). About 1×10^6 LNCaP cells were inoculated subcutaneously with 0.1 ml of Matrigel (Becton Dickinson Labware, Franklin Lakes, N.J.) in the flank region of 6-8 week old male athymic nude mice (Harlan Sprague Dawley, Inc., Indianapolis, Ind.) via a 27 gauge needle under methoxyfluorane anesthesia. Mice bearing tumors between 300 and 500 mm^3 in volume were castrated via a scrotal approach and randomly assigned to treatment with 10 mg/kg of either ISIS 113176 human antisense or ISIS 129987 human mismatch control STAT 3 oligonucleotide intraperitoneally five times per week for the first week followed by three times per week thereafter. Treatment commenced beginning one day after castration. […] Tumor volumes were calculated by the formula L×W×H×0.5236 (Gleave et al., Cancer Res. 51:1598-1605, 1992). Blood samples were obtained from tail vein incisions of mice, and serum PSA levels were determined by an enzymatic immunoassay kit with a lower limit of sensitivity of 0.2 μg/liter (Abbott IMX, Montreal, Quebec, Canada) according to the manufacturer's protocol.

[5] = system: Human STAT3 mRNA; test: STAT3 mRNA in A549 cells treated with dsRNAs (duplex antisense compounds), real-time PCR PPS 199 (Table 22); format: cell-based; details: treated 4 hours, harvested 16 hours later, − decrease, + increase vs untreated control
Method: When cells reached 80% confluency, they are treated with duplexed antisense compounds of the invention. For cells grown in 96-well plates, wells are washed once with […] OPTI-MEM-1 reduced-serum medium (Gibco BRL) and then treated with 130 μL of OPTI-MEM-1 containing 12 μg/mL LIPOFECTIN (Gibco BRL) and the desired duplex antisense compound at a final concentration of 200 nM (a ratio of 6 μg/mL LIPOFECTIN per 100 nM duplex antisense compound). After 5 hours of treatment, the medium is replaced with fresh medium. Cells are harvested 16 hours after treatment, at which time RNA is isolated and target reduction measured by RT-PCR.
The compounds in Table 21 were tested for their effects on human STAT3 expression in A549 cells. ISIS 330249 targets the same site as the antisense oligonucleotid ISIS 106734 (SEQ ID NO: 45) and ISIS 330247 targets the same site as the antisense oligonucleotide ISIS 113176 (SEQ ID NO: 115); thus, ISIS 106734 and ISIS 113176 were also tested. A549 cells were treated with oligonucleotide mixed with LIPOFECTIN (Invitrogen Corporation, Carlsbad, Calif.) as described herein. The control oligonucleotide used was ISIS 129698 ([…], SEQ ID NO: 402). Cells were treated with oligonucleotide for 4 hours and harvested an additional 16 hours later. Untreated cells served as a control.
Human STAT3 mRNA expression levels were quantitated by real-time PCR using primer probe set PPS 199 and gene target quantities were normalized using Ribogreen as described in other examples herein. A “−” or “+” designation indicates a decrease or increase of STAT 3 mRNA expression, respectively, relative to untreated control cells. Where present, “N.D.” indicates not determined.

| Substance | percent specific apoptosis ([1]; 1 uM, untreated cells 5%) [%] | percent specific apoptosis ([1]; 2 uM) [%] | percent specific apoptosis ([1]; 5 uM) [%] | STAT3 mRNA expression in U266 cells (in words) [2] | annexin V staining (in words) [3] | induction of serum PSA levels [4] | tumor growth [4] | Percent inhibition of STAT3 expression ([2]; Oligo concentration 2.5 μM) [%] | Percent inhibition of STAT3 expression ([2]; Oligo concentration 5 μM) [%] | Percent inhibition of STAT3 expression ([2]; Oligo concentration 10 μM) [%] | % mRNA INHIBITION ([2]; U266 cells, 2.5 μM oligonucleotide, electroporation, 24 hours) [%] | % mRNA EXPRESSION ([2]; U266 cells, 2.5 μM oligonucleotide, electroporation, 24 hours, percent of control) [%] | Percent change in STAT3 mRNA expression in A549 cells by duplex antisense compounds ([5]; 12.5 nM oligonucleotide) | Percent change in STAT3 mRNA expression in A549 cells by duplex antisense compounds ([5]; 25 nM oligonucleotide) | Percent change in STAT3 mRNA expression in A549 cells by duplex antisense compounds ([5]; 50 nM oligonucleotide) | Percent change in STAT3 mRNA expression in A549 cells by duplex antisense compounds ([5]; 100 nM oligonucleotide) [%] | Percent change in STAT3 mRNA expression in A549 cells by duplex antisense compounds ([5]; 200 nM oligonucleotide) [%] | Percent change in STAT3 mRNA expression in A549 cells by duplex antisense compounds ([5]; 400 nM oligonucleotide) [%] |
| --- | --- | --- | --- | --- | --- | --- | --- | --- | --- | --- | --- | --- | --- | --- | --- | --- | --- | --- |
| ACTCAAACTGCCCTCCTGCT (listed as DNA, chemistry not fully specified) [ISIS 17148] | 6 | 17 | 24 | potently inhibit STAT3 mRNA expression | increased levels of annexin V staining |  |  |  |  |  |  |  |  |  |  |  |  |  |
| GCTCCAGCATCTGCTGCTTC (antisense eG*e[5mC]*eT*e[5mC]*e[5mC]*dA*dG*d[5mC]*dA*dT*d[5mC]*dT*dG*d[5mC]*dT*eG*e[5mC]*eT*eT*e[5mC]) [ISIS 113176] |  |  |  | potently inhibit STAT3 mRNA expression |  | suppressed | suppressed |  |  |  |  |  |  |  |  |  |  |  |
| 113176 (antisense eG*e[5mC]*eT*e[5mC]*e[5mC]*dA*dG*d[5mC]*dA*dT*d[5mC]*dT*dG*d[5mC]*dT*eG*e[5mC]*eT*eT*e[5mC]) [compound 113176] |  |  |  |  | increased levels of annexin V staining |  |  | 33 | 67 | 79 | 27.7 | 72.3 | +8% | +17% | +6% | 0 | −22 | −34 |
